Reference: patent US8530472B2, “Ethynyl derivatives” (Hoffmann-La Roche Inc., priority 2011, dated 2013)

Biological target: T1, human mGlu5a receptor (Homo sapiens, UniProt P41594)
T1 construct: expressed in transfected cells
Test: Intracellular Ca2+ mobilization assay (mGlu5 PAM)
Type: cell-based
Details: for Emax: HEK293, maximal response in % of the maximal stimulatory effect obtained with saturating concentrations of L-glutamate, HEK-293 human mGlu5a cells, read-out: Eff. (%); for EC50: HEK-293 cells stably transfected with human mGlu5a receptor, L-glutamate added at EC20 (typically around 80 μM) after 10-30 min pre-incubation with test compound, read-out: EC50 (nM) mGlu5PAM
Procedure: A monoclonal HEK-293 cell line stably transfected with a cDNA encoding for the human mGlu5a receptor was generated; for the work with mGlu5 Positive Allosteric Modulators (PAMs), a cell line with low receptor expression levels and low constitutive receptor activity was selected to allow the differentiation of agonistic versus PAM activity. Cells were cultured according to standard protocols (Freshney, 2000) in Dulbecco's Modified Eagle Medium with high glucose supplemented with 1 mM glutamine, 10% (vol/vol) heat-inactivated bovine calf serum, Penicillin/Streptomycin, 50 μg/ml hygromycin and 15 μg/ml blasticidin (all cell culture reagents and antibiotics from Invitrogen, Basel, Switzerland).
About 24 hrs before an experiment, 5×10^4 cells/well were seeded in poly-D-lysine coated, black/clear-bottomed 96-well plates. The cells were loaded with 2.5 μM Fluo-4AM in loading buffer (1×HBSS, 20 mM HEPES) for 1 hr at 37° C. and washed five times with loading buffer. The cells were transferred into a Functional Drug Screening System 7000 (Hamamatsu, Paris, France), and 11 half logarithmic serial dilutions of test compound at 37° C. were added and the cells were incubated for 10-30 min. with on-line recording of fluorescence. Following this pre-incubation step, the agonist L-glutamate was added to the cells at a concentration corresponding to EC20 (typically around 80 μM) with on-line recording of fluorescence; in order to account for day-to-day variations in the responsiveness of cells, the EC20 of glutamate was determined immediately ahead of each experiment by recording of a full dose-response curve of glutamate.
Responses were measured as peak increase in fluorescence minus basal (i.e. fluorescence without addition of L-glutamate), normalized to the maximal stimulatory effect obtained with saturating concentrations of L-glutamate. Graphs were plotted with the % maximal stimulatory using XLfit, a curve fitting program that iteratively plots the data using Levenburg Marquardt algorithm. The single site competition analysis equation used was y=A+((B−A)/(1+((x/C)D))), where y is the % maximal stimulatory effect, A is the minimum y, B is the maximum y, C is the EC50, x is the log 10 of the concentration of the competing compound and D is the slope of the curve (the Hill Coefficient). From these curves the EC50 (concentration at which half maximal stimulation was achieved), the Hill coefficient as well as the maximal response in % of the maximal stimulatory effect obtained with saturating concentrations of L-glutamate were calculated.
A depression of the signal observed after addition of the EC20 concentration of L-glutamate was indicative of an inhibitory activity of the test compound.

T1 sequence (P41594 21-1180 isoform P41594-2 limits assumed): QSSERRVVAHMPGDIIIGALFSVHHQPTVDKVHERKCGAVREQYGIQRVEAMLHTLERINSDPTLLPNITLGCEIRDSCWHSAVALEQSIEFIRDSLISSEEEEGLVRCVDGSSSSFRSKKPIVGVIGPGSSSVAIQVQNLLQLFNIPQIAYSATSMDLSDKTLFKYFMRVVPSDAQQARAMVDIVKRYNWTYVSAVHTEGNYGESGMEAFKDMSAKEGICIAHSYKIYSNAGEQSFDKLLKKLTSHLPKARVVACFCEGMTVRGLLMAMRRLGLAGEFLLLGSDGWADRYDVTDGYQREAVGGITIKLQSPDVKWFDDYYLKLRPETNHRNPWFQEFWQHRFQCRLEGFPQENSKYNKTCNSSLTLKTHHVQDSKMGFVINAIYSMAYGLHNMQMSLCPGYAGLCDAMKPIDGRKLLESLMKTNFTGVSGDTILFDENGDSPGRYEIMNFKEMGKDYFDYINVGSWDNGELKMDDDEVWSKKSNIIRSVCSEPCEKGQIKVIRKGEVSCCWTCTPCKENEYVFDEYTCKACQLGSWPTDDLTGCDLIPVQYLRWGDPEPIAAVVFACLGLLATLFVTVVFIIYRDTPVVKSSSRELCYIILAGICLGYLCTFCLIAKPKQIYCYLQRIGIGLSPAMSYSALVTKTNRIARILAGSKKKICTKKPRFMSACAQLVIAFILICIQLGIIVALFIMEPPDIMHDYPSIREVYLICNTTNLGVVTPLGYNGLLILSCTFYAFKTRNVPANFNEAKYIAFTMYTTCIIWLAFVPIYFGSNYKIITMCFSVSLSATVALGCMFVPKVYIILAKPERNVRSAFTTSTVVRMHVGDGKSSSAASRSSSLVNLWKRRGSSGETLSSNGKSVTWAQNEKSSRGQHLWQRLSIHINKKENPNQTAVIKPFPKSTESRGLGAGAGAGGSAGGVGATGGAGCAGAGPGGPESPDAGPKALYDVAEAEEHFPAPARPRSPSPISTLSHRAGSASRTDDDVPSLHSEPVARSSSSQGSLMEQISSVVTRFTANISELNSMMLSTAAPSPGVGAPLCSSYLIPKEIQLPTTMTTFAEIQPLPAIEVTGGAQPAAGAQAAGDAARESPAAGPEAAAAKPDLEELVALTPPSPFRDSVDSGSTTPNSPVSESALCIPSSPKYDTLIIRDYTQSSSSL

SMILES	Emax [%]	EC50 [nM]
CCCC(C)C(=O)Nc1ccc(C#Cc2ccccc2)cn1 (racemic) [Example 5, (RS)-2-Methyl-pentanoic acid (5-phenylethynyl-pyridin-2-yl)-amide]	75	48
CCCC(=O)Nc1ccc(C#Cc2ccccc2)cn1 [Example 2, N-(5-Phenylethynyl-pyridin-2-yl)-butyramide]	52	70
CCCCC(=O)Nc1ccc(C#Cc2ccccc2)cn1 [Example 3, Pentanoic acid (5-phenylethynyl-pyridin-2-yl)-amide]	84	48
CC(C)CC(=O)Nc1ccc(C#Cc2ccccc2)cn1 [Example 4, 3-Methyl-N-(5-phenylethynyl-pyridin-2-yl)-butyramide]	83	71
CSCC(=O)Nc1ccc(C#Cc2ccccc2)cn1 [Example 6, 2-Methylsulfanyl-N-(5-phenylethynyl-pyridin-2-yl)-acetamide]	47	18
CN(C(=O)C(C)(C)C)c1ncc(C#Cc2ccccc2)cn1 [Example 8, 2,2,N-Trimethyl-N-(5-phenylethynyl-pyrimidin-2-yl)-propionamide]	74	52
COCC(=O)Nc1ccc(C#Cc2ccccc2)cn1 [Example 10, 2-Methoxy-N-(5-phenylethynyl-pyridin-2-yl)-acetamide]	43	49
CC(C)(C)C(=O)Nc1ccc(C#Cc2cccc(F)c2)cn1 [Example 11, N-[5-(3-Fluoro-phenylethynyl)-pyridin-2-yl]-2,2-dimethyl-propionamide]	44	15
COC(C)(C)C(=O)Nc1ccc(C#Cc2cccc(F)c2)cn1 [Example 13, N-[5-(3-Fluoro-phenylethynyl)-pyridin-2-yl]-2-methoxy-2-methyl-propionamide]	54	85
COC(C)(C)C(=O)Nc1ccc(C#Cc2cc(F)ccc2F)cn1 [Example 14, N-[5-(2,5-Difluoro-phenylethynyl)-pyridin-2-yl]-2-methoxy-2-methyl-propionamide]	47	94
CC(C)(C(=O)Nc1ccc(C#Cc2cccc(Cl)c2)cn1)C(F)(F)F [Example 15, N-[5-(3-Chloro-phenylethynyl)-pyridin-2-yl]-3,3,3-trifluoro-2,2-dimethyl-propionamide]	46	19

The next lines start with the values.

Emax [%]	EC50 [nM]	SMILES
72	19	CC(C)(C)C(=O)Nc1ccc(C#Cc2ccccc2)cn1 [Example 1, 2,2-Dimethyl-N-(5-phenylethynyl-pyridin-2-yl)-propionamide]
59	56	CC(C)(C)C(=O)Nc1ncc(C#Cc2ccccc2)cn1 [Example 7, 2,2-Dimethyl-N-(5-phenylethynyl-pyrimidin-2-yl)-propionamide]
73	6	CC(C)(C)C(=O)Nc1ccc(C#Cc2ccccc2)nn1 [Example 9, 2,2-Dimethyl-N-(6-phenylethynyl-pyridazin-3-yl)-propionamide]
68	77	COC(C)(C)C(=O)Nc1ccc(C#Cc2ccccc2)cn1 [Example 12, 2-Methoxy-2-methyl-N-(5-phenylethynyl-pyridin-2-yl)-propionamide]
45	7	CC(C)(C)C(=O)Nc1ccc(C#Cc2cccc(Cl)c2)nn1 [Example 16, N-[6-(3-Chloro-phenylethynyl)-pyridazin-3-yl]-2,2-dimethyl-propionamide]
